Active and inactive are the calls of the source. The calls are words filed in the database; no cut-off is given here.

Data set [1] in a line: Drug level in CBRI mouse liver microsomes treated with clocoumarol at 5 umol after 30 mins by TLC analysis in presence of NADPH generating system. The data set is classed as ADME. To be noted: 0.5 h. A general note: Liver microsomes are a subcellular fraction often used to study metabolism.
Data set [2] can be described thus: Drug level in Duncan-Hartley guinea pig liver microsomes treated with clocoumarol at 5 umol after 30 mins by TLC analysis in presence of NADPH generating system. To be noted: 0.5 h. The data set is classed as ADME, Cavia porcellus.
Data set [3] can be described thus: Retardation factor of the compound in 9:1 v/v benzene-ethyl acetate solvent system by TLC analysis. The data set is classed as physicochemical.
Data set [4] concerns Liver microsome. The data set can be described thus: Drug metabolism Wistar albino rat liver microsomes assessed as formation of 6-[1-Hydroxy-2-oxo-3-[p-(2-chloroethyl)phenyl]hexylidene]-2,4-cyclohexadien-1-one at 5 umol after 30 mins by TLC analysis in presence of carbon monooxide. In kind it is ADME. To be noted: 0.5 h.
The test system of data set [5] is Liver microsome. As to the kind of experiment: Drug level in Wistar albino rat liver microsomes treated with clocoumarol at 5 umol after 30 mins by TLC analysis in presence of NADP/NAD/NADH/oxygen. In kind it is ADME. The conditions noted are these: 0.5 h.
The nature of data set [6]: Retardation factor of the compound in 20:3 v/v benzene-acetic acid solvent system by TLC analysis. In kind it is physicochemical.
Data set [7] deals with Liver microsome. As to the kind of experiment: Drug level in Wistar albino rat washed liver microsomal fraction treated with clocoumarol at 5 umol after 30 mins by TLC analysis. In kind it is ADME. The conditions noted are these: microsomes, 0.5 h.
Data set [8] relates to Rattus norvegicus. As to the kind of experiment: Anticoagulant activity in rat at 100 x 0.25 mg/kg, ip. The data set is classed as functional, organism-based. On the set-up: dose 0.25 mg/kg.
Data set [9] in a line: Retardation factor of the compound in 9:1 v/v dichloroethane-acetone solvent system by TLC analysis. In kind it is physicochemical.
Data set [10] concerns Liver microsome. As to the kind of experiment: Drug level in Wistar albino rat liver microsomes treated with clocoumarol at 5 umol after 30 mins TLC analysis in presence of NADPH generating system. In kind it is ADME. To be noted: 0.5 h.
Data set [11] is described as follows: Drug metabolism in CBRI mouse liver microsomes assessed as formation of 6-[1-Hydroxy-2-oxo-3-[p-(2-chloroethyl)phenyl]hexylidene]-2,4-cyclohexadien-1-one at 5 umol after 30 mins by TLC analysis in presence of NADPH generating system. The data set is classed as ADME. To be noted: 0.5 h.
Data set [12] has as its system Liver microsome. As to the kind of experiment: Drug metabolism in Wistar albino rat washed liver microsomal fraction assessed as formation of 6-[1-Hydroxy-2-oxo-3-[p-(2-chloroethyl)phenyl]hexylidene]-2,4-cyclohexadien-1-one at 5 umol after 30 mins by TLC analysis. To be noted: microsomes, 0.5 h. In kind it is ADME.
A short description of data set [13]: Drug metabolism in Wistar albino rat liver nuclear fraction assessed as formation of 6-[1-Hydroxy-2-oxo-3-[p-(2-chloroethyl)phenyl]hexylidene]-2,4-cyclohexadien-1-one at 5 umol after 30 mins by TLC analysis. The data set is classed as ADME. To be noted: 0.5 h.
The test system of data set [14] is Liver microsome. The data set can be described thus: Drug metabolism in Wistar albino rat liver microsomes assessed as formation of 6-[1-Hydroxy-2-oxo-3-[p-(2-chloroethyl)phenyl]hexylidene]-2,4-cyclohexadien-1-one at 5 umol after 30 mins by TLC analysis in presence of nitrogen. The data set is classed as ADME. The conditions noted are these: 0.5 h.
Data set [15] is described as follows: Drug metabolism in Wistar albino rat mitochondrial fraction assessed as formation of 6-[1-Hydroxy-2-oxo-3-[p-(2-chloroethyl)phenyl]hexylidene]-2,4-cyclohexadien-1-one at 5 umol after 30 mins by TLC analysis. The data set is classed as ADME, Mitochondria. The conditions noted are these: 0.5 h.
Data set [16] has as its system Liver microsome. As to the kind of experiment: Drug metabolism in Wistar albino rat liver microsomes assessed as formation of 6-[1-Hydroxy-2-oxo-3-[p-(2-chloroethyl)phenyl]hexylidene]-2,4-cyclohexadien-1-one at 5 umol after 30 mins by TLC analysis in presence of NADP/NAD/NADH/oxygen. In kind it is ADME. The conditions noted are these: 0.5 h.
The test system of data set [17] is Liver microsome. As to the kind of experiment: Drug metabolism in Wistar albino rat liver soluble microsomal fraction assessed as formation of 6-[1-Hydroxy-2-oxo-3-[p-(2-chloroethyl)phenyl]hexylidene]-2,4-cyclohexadien-1-one. In kind it is ADME. The conditions noted are these: microsomes.
Data set [18] is described as follows: Drug metabolism in Duncan-Hartley guinea pig liver microsomes assessed as formation of 6-[1-Hydroxy-2-oxo-3-[p-(2-chloroethyl)phenyl]hexylidene]-2,4-cyclohexadien-1-one at 5 umol after 30 mins by TLC analysis in presence of NADPH generating system. In kind it is ADME, Cavia porcellus. The conditions noted are these: 0.5 h.

For the compound `CCCC(C(=O)/C(O)=C1\C=CC=CC1=O)c1ccc(CCCl)cc1` (stereo unspecified), the Drug metabolism entry in data set [1] is on record as “metabolite_detected”; in [2], “metabolite_detected”; in [4], “metabolite_notdetected”; in data set [5], “metabolite_detected”; in [7], “metabolite_detected”; in [10], “metabolite_detected”. Further, the Rf in [3] is reported as 0.44; in [6], 0.74; in [9], 0.61. Moreover, in data set [8], the result was inactive.

Regarding `CCCC(c1ccc(CCCl)cc1)c1c(O)c2ccccc2oc1=O` (stereo unspecified) [CLOCOUMAROL], the Rf in data set [3] is recorded as 0.33; in data set [6], 0.67; in data set [9] it was 0.53. The Drug metabolism result in [11] is “metabolite_detected”; in data set [12], “metabolite_detected”; in data set [13] it was “metabolite_notdetected”; in data set [14], “metabolite_notdetected”; in [15], “metabolite_notdetected”; in data set [16], “metabolite_detected”. Moreover, the Drug metabolism result in data set [17] was “metabolite_notdetected”; in [18], “metabolite_detected”.

Values taken from ChEMBL document CHEMBL3243959, “In vitro metabolism of a new 4-hydroxycoumarin anticoagulant. Structure of an unusual metabolite” (J Med Chem, 1977).
